Data: the NIST ThermoML archive (doi:10.1016/j.jct.2004.01.006)
Numbers after ± are expanded uncertainties.

Tests used:
[1] = Molar enthalpy of transition or fusion; settings: Crystal; Adiabatic calorimetry
[2] = Crystal; Adiabatic calorimetry

**Q.** Which results are given for `O=Cc1ccc(Cl)cc1Cl` [2,4-dichlorobenzaldehyde]?
**A.** Molar enthalpy of transition or fusion [1]: 4.892 ± 0.0167 kcal/mol; Triple point temperature [2]: 347.24 ± 0.27 K
